Results on 6 molecules are retold here after ChEMBL document CHEMBL1157472, “Synthesis of 5''-branched derivatives of cyclic ADP-carbocyclic-ribose, a potent Ca2+-mobilizing agent: The first antagonists modified at the N1-ribose moiety” (Bioorg Med Chem Lett, 2008).

One series relates to Lytechinus pictus. Nature of the series: Agonist activity at ryanodine receptor in sea urchin egg homogenates assessed as effect on calcium release at 30 uM by fluorimetry. The format is functional, tissue-based.
A short description of series [1]: Antagonist activity at ryanodine receptor in sea urchin egg homogenates assessed as decrease in cADPcR-induced calcium release by fluorimetry. Format: functional, tissue-based, Lytechinus pictus.
Series [2] in a line: Agonist activity at ryanodine receptor in sea urchin egg homogenates assessed as effect on calcium release by fluorimetry. Format: functional, Lytechinus pictus.
The nature of series [3]: Stability in human serum at 37 degC after 3 days. To be noted: read-out: Stability. The format is ADME, cell-free.

Activity calls are given as the source filed them. The calls are words filed in the database; no cut-off is given here.

For the molecule `NCC[C@H]1OP(=O)([O-])OP(=O)(O)OC[C@H]2O[C@H]([C@H](O)[C@@H]2O)n2cnc3c(N)[n+](cnc32)[C@@H]2C[C@H]1[C@@H](O)[C@H]2O`, the outcome in the series on Lytechinus pictus was inactive. Besides, in series [1], the IC50 was found to be 73 µM.
With `NCC[C@@H]1OP(=O)([O-])OP(=O)(O)OC[C@H]2O[C@H]([C@H](O)[C@@H]2O)n2cnc3c(N)[n+](cnc32)[C@@H]2C[C@H]1[C@@H](O)[C@H]2O`, the result in the series on Lytechinus pictus was inactive. Besides, the IC50 in series [1] amounted to 120 µM.
As for `Nc1c2ncn3c2nc[n+]1[C@@H]1C[C@H](COP(=O)([O-])OP(=O)(O)OC[C@H]2O[C@@H]3[C@H](O)[C@@H]2O)[C@@H](O)[C@H]1O`, the EC50 in series [2] turned out to be 0.079 µM.
Turning to `[N-]=[N+]=NCC[C@H]1OP(=O)([O-])OP(=O)(O)OC[C@H]2O[C@H]([C@H](O)[C@@H]2O)n2cnc3c(N)[n+](cnc32)[C@@H]2C[C@H]1[C@@H](O)[C@H]2O`, the result in the series with Lytechinus pictus was inactive. For the same molecule, in series [1], the IC50 was 14 µM.
On to `[N-]=[N+]=NCC[C@@H]1OP(=O)(O)OP(=O)([O-])OC[C@H]2O[C@H]([C@H](O)[C@@H]2O)n2cnc3c(N)[n+](cnc32)[C@@H]2C[C@H]1[C@@H](O)[C@H]2O`, for which, in the series with Lytechinus pictus, the outcome was inactive. For the same molecule, in series [3], the remaining at 72 h amounted to 89%. Moreover, in series [1], the IC50 was determined as 19 µM.
With `Nc1c2ncn3c2nc[n+]1[C@@H]1O[C@H](COP(=O)([O-])OP(=O)(O)OC[C@H]2O[C@@H]3[C@H](O)[C@@H]2O)[C@@H](O)[C@H]1O`, in series [2], the EC50 stood at 0.21 µM.

Broadly, the IC50 is the concentration that inhibits the measured activity by half. The EC50 is the concentration needed to bring the measured effect to its halfway point.
